Source: US11926613B2, “Kinase inhibitors for the treatment of central and peripheral nervous system disorders” (UNIVERSITY OF MIAMI, priority 2017, dated 2024)
“Also recorded” adds a separate entry of the source. Where two headings read alike, the source gives them in different places.

Assays:
[1] = system: neurons from hippocampi of E18 rat embryos; test: Neurite growth length (% NTL) in cultured E18 rat hippocampal neurons, 9-point dose response, 48 hours; format: cell-based
Outline: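 % NTL comes from automated neurite tracing of βIII-tubulin-stained cells, with 200–300 or more neurons per condition. Compounds were given in a 9-point dilution series (20 μM to 0.078125 μM) for 48 h. Cells were trypsin-dissociated E18 rat hippocampal neurons plated at 1500/well on poly-D-lysine.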

Primary Neurons = test: HCS neurite outgrowth assay (High Content Screening with Primary Neurons); format: cell-based
[2] = system: corticospinal tract (CST) axons; test: Unilateral pyramidotomy model, in vivo axon growth (CST axon sprouting); details: mice, cortical injection, 2 mM final concentration, 5 weeks after unilateral pyramidotomy, N=2
Excerpt: B) Graph represents averages of sprouting axon index across two animals treated with indicated compounds. Error bars indicate range of data points. N=2 animals (mice).
To assess the role of the compounds described herein in axon growth in vivo, the unilateral pyramidotomy model was employed, in which the pyramid in the ventral brainstem was severed unilaterally, rostral to the decussation of corticospinal tract (CST) axons. The animals then received bilateral cortical injections of a compound described herein (or DMSO) mixed 1:1 with AAV8-UbC-GFP or AAV8-UbC-TdTomato (5×10^13 GC/mL) for a final concentration of 2 mM (2 animals (mice) for each condition). […] Axon growth in the cervical spinal cord was assessed after 5 weeks. Cervical sections of the spinal cord were stained with antibodies against PKCγ (to assess completeness of lesion), and GFP (to amplify the signal from the virus). For analyses, GFP+ axons sprouting into the denervated gray matter were counted at 0, 500, 1000 μm lateral to the central canal, and normalized to the number of GFP+ fibers at the level of the brainstem (sprouting axon index).

primary CNS neurons = test: Neurite outgrowth in primary CNS neurons (FIG. 1, FIG. 2); format: cell-based; details: FIG. 2, combination of both inhibitors

| Molecule | neurite growth length (% NTL) ([1]; 156 nM) | neurite growth length (% NTL) ([1]; 312 nM) | neurite growth length (% NTL) ([1]; 625 nM) | neurite growth length (% NTL) ([1]; 1.25 μM) | neurite growth length (% NTL) ([1]; 2.5 μM) | neurite growth length (% NTL) ([1]; 5 μM) | neurite growth length (% NTL) ([1]; 10 μM) | neurite growth length (% NTL) ([1]; 20 μM) | EC50 (Primary Neurons) | CST axon sprouting (sprouting axon index) [2] | EC50 (Primary Neurons; Primary neuron) | neurite outgrowth, ROCK inhibitor and S6K inhibitor combined (primary CNS neurons) | also measured |
| --- | --- | --- | --- | --- | --- | --- | --- | --- | --- | --- | --- | --- | --- |
| COc1ccc(O)c(C(=O)c2ccc(C(=O)N[C@@H]3CNC[C@H]3NC(=O)c3ccncc3)cc2)c1F [Example A16, N-[(3R,4R)-4-[4-(2-fluoro-6-hydroxy-3-methoxybenzoyl)benzamido]pyrrolidin-3-yl]pyridine-4-carboxamide] | 117.55 % NTL | 125.17 % NTL | 144.99 % NTL | 167.31 % NTL | 228.24 % NTL | 403.74 % NTL | 573.73 % NTL | 660.88 % NTL | 5.5 µM | nearly a two-fold increase in sprouting | – | – | activity at 0.078 µM ([1]; Rattus norvegicus, Neuron, 48 h, 78 nM): 117%; CST axon sprouting (sprouting axon index) ([2]; listed as A-16): promotes CST axon sprouting in the spinal cord |
| O=C(N[C@@H]1CNC[C@H]1NC(=O)c1ccc(C(=O)c2cc(Br)ccc2O)cc1)c1ccncc1 [Example A88, N-((3R,4R)-4-(4-(5-bromo-2-hydroxybenzoyl)benzamido)pyrrolidin-3-yl)isonicotinamide] | – | – | – | – | – | – | – | – | – | promotes CST axon sprouting in the spinal cord; also recorded: nearly a two-fold increase in sprouting | 1.17 µM | – | – |
| COc1ccc(O)c(C(=O)c2ccc(C(=O)O[C@@H]3CCCNC[C@H]3NC(=O)c3ccncc3)cc2)c1F [Example A92, (3R,4R)-3-(isonicotinamido)azepan-4-yl 4-(2-fluoro-6-hydroxy-3-methoxybenzoyl)benzoate, reference compound] | – | – | – | – | – | – | – | – | – | promotes CST axon sprouting in the spinal cord; also recorded: nearly a two-fold increase in sprouting | 0.711 µM | – | – |
| Cc1cncc2cccc(S(=O)(=O)N3CCCNC[C@@H]3C)c12 [Example H-1152] | – | – | – | – | – | – | – | – | – | – | – | synergistically promotes neurite outgrowth | – |
| CCc1cncnc1N1CCN(Cc2nc3ccc(C(F)(F)F)cc3[nH]2)CC1 [PF-4708761] | – | – | – | – | – | – | – | – | – | – | – | synergistically promotes neurite outgrowth | – |
| N[(3R,4R)-4-{4-[(2-fluoro-6-hydroxy-3- methoxyphenyl)methyl]benzamido}pyrrolidin- 3-yl]pyridine-4-carboxamide [Example A55] | 77.96 % NTL | 80.06 % NTL | 76.79 % NTL | 81.96 % NTL | 90.13 % NTL | 93.58 % NTL | 98.77 % NTL | 96.04 % NTL | 4.74 µM | – | – | – | neurite growth length (% NTL) ([1]; 78 nM): 85.02 % NTL |
